In brackets after ≈: the same amount, converted by molar mass. Non-standard residues stand in square brackets, D forms with d. Residues, ends and D or L forms follow the SMILES beside them. Dopa = N[C@@H](Cc1ccc(O)c(O)c1)C(=O)O
Tests used:
CD14 cells = assay: Cytokine release assay, ELISA; format: cell-based, human; details: 24 h, cells from 2 patients
Procedure: Three types of immune cells were prepared from human monocytes provided from the EFS (Etablissement Français du Sang). Dendritic cells (DC1a), CD14 and macrophages were obtained after treatment of monocytes by cytokines according to the methods previously reported[31],[32] and the identification of the immune cells was validated by using flow cytometry analysis (Fluorescence Activated Cell Sorting, FACS).
The release of cytokines IL-6, IL-8, IL-10 and TNF-α induced after the treatment of immune cells by Cts was realized by the use of an automated ELISA immunoassay (Immulite One, Siemens la Garenne-Colombe, France) and with the Bio-Plex Multiplex Immunoassay system (Bio-Rad, Marnes-la-Coquette) for the treatment of Human Peripheral Blood Mononuclear Cells (PBMCs) by L-Ctl, D-Ctl, Ctl-C, D-Ctl-C and P3. PBMCs from healthy volunteers were obtained from the blood transfusion centre of Strasbourg (Etablissement Français du Sang, Strasbourg) and isolated by density gradient centrifugation using Lymphoprep (Stemcell Technologies). PMBC were then maintained in AIM V medium (Thermo Fisher Scientific, Waltham, MA, USA) at 37 °C in a 5% CO2 humidified incubator and treated for 24 h with 30 µM of each peptide (L-Ctl, D-Ctl, Ctl-C, D-Ctl-C and P3). Three technical replicates were performed for each condition. Supernatants were then filtered and assessed for cytokine dosage according to the manufacturer’s instructions.

[1] = test system: methicillin sensitive S. aureus (MSSA, strain 49775); format: cell-based, Staphylococcus aureus; details: for MIC100 MSSA: MSSA strain 49775, MHB medium pH 7.4, 24 h at 37 °C, A620 nm, triplicates
Procedure: (§1) Antibacterial assays were realized to the method previously reported[22],[25]. S. aureus strains were pre-cultured for 20 h in aerobic conditions at 37 °C in Mueller–Hinton Broth (MHB) medium (Becton–Dickinson Microbiology Company, Sparks, USA) (pH 7.4). Bacteria were suspended at absorbance of 0.001 at 620 nm in the MHB medium. Antibacterial activity was tested for 24 h incubation at 37 °C with shaking by measuring the inhibition of bacterial growth. Ten µl of final volumes (10–200 µg/mL) of synthetic peptides were incubated in microtitration plates with 90 µl of a mid-logarithmic phase culture of bacteria, with a starting absorbance of 0.001 at 620 nm. A mixture of Tetracycline (10 mg/L) and Cefotaxime (0.1 mg/L) were used as positive controls. Microbial growth was assessed by the increase of absorbance after 24 h incubation at 37 °C. The A620 nm value of control cultures growing in the absence of peptide and antibiotics was defined as 100% growth. A620 nm value with the antibiotics (Tetracycline and Cefotaxime) was taken as 100% inhibition. Absence of bacterial growth was verified by agar plate spreading. Each assay was performed in triplicates. Data were shown as mean + /− standard deviation of three independent experiments; p < 0.05.

[2] = test system: Endoprotease Glu-C from S. aureus V8 (E.C. 3.4.21.19); assay: endoprotease Glu-C in 50 mM Tris–HCl pH 8.2 or PBS; details: S. aureus V8, 37 °C, up to 18 h
[3] = test system: proteases produced by Staphylococcus aureus; assay: proteases produced by Staphylococcus aureus; details: cited from earlier work
[4] = test system: C. albicans (ATCC 10231TM); assay: Antimicrobial assay against C. albicans ATCC 10231; format: cell-based, Candida albicans; details: Sabouraud medium, 24 h at 37 °C, OD620nm, lowest concentration inhibiting 100% of growth
Procedure: Antimicrobial assays against C. albicans (ATCC 10231TM) were realized according to the method previously reported. C. albicans was cultured in Sabouraud medium (Sigma-Aldrich, Saint Louis, USA) supplemented with tetracycline (10 μg/mL) and cefotaxime (10 μg/mL) at 37 °C for 24 h. C. albicans (OD620nm = 0.001) were plated in 96-well plates and treated either with different concentrations of the peptides of interest, and/or with different concentrations of voriconazole (VCZ) (Sigma-Aldrich, Saint Louis, USA). As a positive control, cells were treated with 10 μg/mL VCZ. After 24 h incubation, yeast growth was assessed by optical density OD620nm using a spectrophotometer Multiskan EX Microplate Reader Lab (Thermo Fisher Scientific, Waltham, MA, USA).
The MIC of the antifungal agents is defined as the lowest concentration of drug able to inhibit 100% of the growth of C. albicans.

[5] = test system: methicillin resistant S. aureus (MRSA, strain S1); assay: Antibacterial growth inhibition assay, MRSA strain S1; format: cell-based, Staphylococcus aureus; details: MHB medium pH 7.4, 24 h at 37 °C, A620 nm, triplicates
Procedure: as §1

MRSA = format: cell-based, Staphylococcus aureus
Procedure: (§2) The L- and D- forms of Ctl and also the corresponding L- and D-forms of the scramble peptides were tested by Atlangram (Nantes, France) against resistant Gram-negative bacteria (Escherichia coli, Klebsiella pneumoniae, Enterobacter cloacae, Enterobacter aerogenes, Serratia marcescens, Morganella morganii, Pseudomonas aeruginosa), MSSA, MRSA and yeast (C. albicans). The MICs were determined according to the CASFM/EUCAST 2018 (Comité de l’Antibiogramme de la Société Française de Microbiologie).

Morganella morganii = format: cell-based
Procedure: as §2

Candida albicans = format: cell-based
Procedure: as §2

Escherichia coli = format: cell-based
Procedure: as §2

[6] = test system: Endoprotease Glu-C from S. aureus V8 (E.C. 3.4.21.19); assay: Endoprotease Glu-C in 50 mM Tris–HCl pH 8.2 or PBS; details: S. aureus V8 (enzyme source), 37 °C, up to 18 h
MSSA = format: cell-based, Staphylococcus aureus
Procedure: as §2

Serratia marcescens = format: cell-based
Procedure: as §2

Pseudomonas aeruginosa = format: cell-based
Procedure: as §2

Citrobacter freundii = format: cell-based

What does the source list for Catestatin [Cts]?
production of IL-6 (CD14 cells; 15 µM, cell type not given): not modified; production of IL-10 (CD14 cells; 15 µM, cell type not given): not modified; production of TNF-α (CD14 cells; 15 µM, cell type not given): not modified; decrease of the amount of IL-8 released versus controls (without peptide) (CD14 cells; CD14, 15 µM): 26%

For “RSMRLSFRARGYGFRMal-(46PEG)-MalRFGYGRARFSLRMSR [Peptide P6, dimeric form of Ctl with spacer of 46 PEG]”, which “MIC100 MSSA” value [1] is on record?
Its value is over 100 µM.

For “RSMRLSFRARGYGFRMal-(12PEG)-MalRFGYGRARFSLRMSR [Peptide P4, dimeric form of Ctl with spacer of 12 PEG]”, which “MIC100 MSSA” value [1] is on record?
Its value is over 100 µM.

For CSCC[C@@H](NC(=O)[C@@H](CO)NC(=O)[C@@H](CCCNC(=N)N)NC(=O)[C@H](CCC(=O)O)NC(=O)CNC(=O)CNC(=O)[C@H](CCCNC(=N)N)NC(=O)[C@H](CC(C)C)NC(=O)[C@@H](NC(=O)[C@H](Cc1ccc(O)c(O)c1)NC(=O)[C@H](CCCCN)NC(=O)[C@H](Cc1ccc(O)c(O)c1)NC(=O)[C@H](CCCCN)NC(=O)[C@@H](N)Cc1ccc(O)c(O)c1)[C@@H](C)O)C(=O)N[C@H](CCCNC(=N)N)C(=O)N[C@H](CC(C)C)C(=O)N[C@H](CO)C(=O)N[C@H](Cc1ccccc1)C(=O)N[C@H](CCCNC(=N)N)C(=O)N[C@H](C)C(=O)N[C@H](CCCNC(=N)N)C(=O)NCC(=O)N[C@H](Cc1ccc(O)cc1)C(=O)NCC(=O)N[C@H](Cc1ccccc1)C(=O)N[C@H](CCCNC(=N)N)C(=O)O [DOPA5T-(D)Ctl] (H-[Dopa]K[Dopa]K[Dopa]TLRGGE[dR][dS][dM][dR][dL][dS][dF][dR][dA][dR]G[dY]G[dF][dR]-OH), which IC50 ([1]; methicillin sensitive (, strain 49775, 24 h)) is on record?
The IC50 was 35 µM.

Which cleaved bond [2] does the source give for “DOPA-K-DOPA-K-DOPA-TLRGGE-RSMRLSFRARGYGFR” here?
The cleaved bond was “E-R, major”.

With RSMRLSFRARGYGFR as the molecule, how does the not cleaved [3] read?
The not cleaved was “resistant to degradation by the proteases produced by Staphylococcus aureus”.

What does the source list for “RSMRLSFRARGYGFRMal-(16PEG)-MalRFGYGRARFSLRMSR [Peptide P5, dimeric form of Ctl with spacer of 16 PEG]”?
MIC100 C. albicans [4]: 50 µM; MIC100 MSSA [1]: > 100 µM; MIC100 MRSA [5]: > 100 µM

Which MIC (MRSA) does the source give for CSCC[C@@H](NC(=O)[C@@H](CO)NC(=O)[C@H](N)CCCNC(=N)N)C(=O)N[C@H](CCCNC(=N)N)C(=O)N[C@H](CC(C)C)C(=O)N[C@H](CO)C(=O)N[C@H](Cc1ccccc1)C(=O)N[C@H](CCCNC(=N)N)C(=O)N[C@H](C)C(=O)N[C@H](CCCNC(=N)N)C(=O)NCC(=O)N[C@H](Cc1ccc(O)cc1)C(=O)NCC(=O)N[C@H](Cc1ccccc1)C(=O)N[C@H](CCCNC(=N)N)C(=O)O [D-Ctl] (H-[dR][dS][dM][dR][dL][dS][dF][dR][dA][dR]G[dY]G[dF][dR]-OH) here?
Its MIC is 64 µg/mL (≈ 34.4 µM).

And the MIC (Morganella morganii)?
Its MIC is over 128 µg/mL.

What about the MIC (Candida albicans) of the same molecule?
Its MIC is 256 µg/mL (≈ 138 µM).

And the “MIC against several strains of E. coli” value (Escherichia coli)?
Its value is 8 to 32 µg/mL.

For TLRGGE-RSMRLSFRARGYGFR, which cleaved bond [2] is on record?
Its cleaved bond is “R-A, major”.

What about the fragment found [2] of the same molecule?
The fragment found was “TLRGGE, major”.

And the cleaved bond [6]?
The cleaved bond was “R-A, major”.

What does the source list for CSCC[C@@H](NC(=O)[C@H](N)Cc1ccccc1)C(=O)N[C@H](CCCNC(=N)N)C(=O)N[C@H](CC(C)C)C(=O)N[C@H](CCCNC(=N)N)C(=O)N[C@H](Cc1ccc(O)cc1)C(=O)N[C@H](CCCNC(=N)N)C(=O)N[C@H](CO)C(=O)N[C@H](CO)C(=O)N[C@H](C)C(=O)N[C@H](Cc1ccccc1)C(=O)NCC(=O)NCC(=O)N[C@H](CCCNC(=N)N)C(=O)N[C@H](CCCNC(=N)N)C(=O)O [Control D, reference compound] (H-[dF][dM][dR][dL][dR][dY][dR][dS][dS][dA][dF]GG[dR][dR]-OH)?
MIC (MSSA): > 128 µg/mL; MIC (MRSA): > 128 µg/mL; MIC (Serratia marcescens): > 128 µg/mL; MIC (Morganella morganii): > 128 µg/mL; MIC (Pseudomonas aeruginosa): > 128 µg/mL; MIC (Candida albicans): 512 µg/mL (≈ 275 µM); MIC (Citrobacter freundii): 128 µg/mL (≈ 68.8 µM)

— PMC8329280 (Scientific Reports, 2021)
